Data: patent US20260007634A1, “PHARMACEUTICAL COMPOSITIONS FOR THE TREATMENT OF ALLERGIC DISEASES” (KINKI UNIVERSITY, priority 2022, published 2026)

How the values were obtained:
[1] = system: IgE antibody; experiment: Serum IgE antibody ELISA, atopic dermatitis mice; type: in vivo, mouse; details: day 7, topical application, control 1214, vehicle (MC903) 2588
Experimental: (§1) MC903 at 2 nM was applied to the right auricle of a 6-week-old male Balb/c (Japan SLC Inc.). Starting 8 h later, 5% norathyriol aqueous solution (1 mL of ethanol containing […] of norathyriol), betamethasone ointment, and delgocitinib ointment were applied to the auricle for 7 days. The measurement of auricular skin swelling was calculated by calipers. The day on which the first application of the compound was made was defined as day 0. Betamethasone and delgocitinib are currently in clinical use in atopic dermatitis and were used as control drugs in this example.
Serum was collected from mice on day 7 in Example 1, and IgE antibody production was measured by enzyme-linked immunosorbent assay (ELISA). This assay was performed using a mouse IgE antibody ELISA kit (R&D).

[2] = system: IL-5; experiment: Auricular tissue IL-5 ELISA, atopic dermatitis mice; type: in vivo, mouse; details: day 7, topical application, control 15, vehicle 32
Experimental: as §1
The mouse IL-5 ELISA kit (R&D) was used for this measurement.

[3] = system: B cells collected from mice; experiment: BAFF-induced differentiation into mature B cells (IgM/IgD flow cytometry); type: cell-based, mouse; details: 100 ng/mL BAFF, 10 days, 100 μM mangiferin, 20 μM 1,3,5,6-tetrahydroxyxanthone, 10 μM others
Experimental: B cells collected from mice were cultured in RPMI 1640 medium for 1 day. Then, 100 μM mangiferin, 10 μM mangiferin 8a, 10 μM norathyriol, 20 μM 1,3,5,6-tetrahydroxyxanthone, 10 μM xanthohydrol, 10 μM α-mangostin, 10 μM of γ-mangostin were added to B cell, and after 1 day of culture, 100 ng/mL of BAFF was added, followed by 10 days of culture. After 10 days of culture, cells were stained with anti-IgM and anti-IgD antibodies, markers of B cells, and the expression of IgM and IgD was measured using BD LSRFortessa. Note that IgM negative and IgD negative indicates pre-B cells, IgM positive and IgD negative indicates immature B cells, and IgM positive and IgD positive indicates mature B cells.

[4] = system: TNFα; experiment: BAFF-induced TNFα secretion in B cells (ELISA); type: cell-based, mouse; details: DBA/1J spleen B cells; 10 μM compound, 100 ng/mL BAFF, 7 days; control 11.34, BAFF only 230.64
Experimental: (§2) Spleens were harvested from 6-week-old male DBA/1J mice and B cells were isolated. After isolation, the cells were cultured in RPMI 1640 medium for 1 day. Then, 10 μM mangiferin 8a and 10 μM norathyriol were added to B cells, and 100 ng/mL of BAFF was added to each 3 h later, and the cells were cultured for 7 days. After 7 days of culture, the culture supernatant was collected and TNFα secretion was measured by enzyme-linked immunosorbent assay (ELISA). This assay was performed using a mouse TNFα ELISA kit (R&D).

[5] = system: IL-6; experiment: BAFF-induced IL-6 secretion in B cells (ELISA); type: cell-based, mouse; details: DBA/1J spleen B cells; 10 μM compound, 100 ng/mL BAFF, 7 days; control 26.06, BAFF only 454.47
Experimental: as §2, with “IL-6” for “TNFα”

[6] = system: Th17 cells; experiment: Th17 cell activation in inflammation-induced mouse model (IL-17A flow cytometry); type: in vivo; details: DBA/1J mice, Freund's complete adjuvant + bovine type2 collagen; oral 10 mg/kg daily 20 days; thymus cells; vs vehicle group
Experimental: Equal volume mixtures of Freund's complete adjuvant and Bovine type2 collagen were administered to 6-week-old male DBA/1J mice (Japan SLC Inc.) at 0.1 mL (day 0 of the study). 21 days later, DBA/1J mice were again injected with 0.1 mL of the above mixture for secondary immunization. After the second immunization, mice were orally treated with 10 mg/kg of mangiferin 8a and 10 mg/kg of norathyriol daily for 20 days. 20 days later, thymus glands were harvested from mice and stained with anti-CD4 and anti-IL-17A antibodies, which are Th17 cell markers, and expression of IL-17A (CD4 positive) was measured using BD LSRFortessa.

[7] = system: mouse B cells; experiment: LPS-stimulated B cell proliferation (trypan blue); type: cell-based; details: 10 μM compound, 10 μg/mL LPS 3 days, control 1.66×10^4, LPS 4.25×10^4
Experimental: The inhibitory effect of the compound on B cell proliferation was examined using mouse B cells.
B cells collected from mice were cultured in RPMI 1640 medium for 1 day. Then, 10 μM mangiferin 8a and 10 μM norathyriol were added to B cells, and after 1 day of culture, 10 μg/mL of lipopolysaccharide (LPS) was added to each for 3 days. After 3 days of incubation, the number of viable cells was determined by the trypan blue dye method. Note that LPS was used as an allergic inflammation inducer.
Referring to FIG. 48, the horizontal axis indicates treatment with each compound and the vertical axis indicates cell count (1×10^4 cells/mL). Only 0.5% DMSO in PBS, which was used to dissolve the reagent (compound), was added as control. The LPS group is referred to as the LPS group with 10 μg/mL LPS, the mangiferin 8a group is referred to as the mangiferin 8a group with LPS and mangiferin 8a, and the norathyriol group is referred to as the norathyriol group with LPS and norathyriol.

[8] = system: TNFα; experiment: LPS-stimulated TNFα secretion in macrophages (ELISA); type: cell-based, mouse; details: 10 μM compound, 10 μg/mL LPS 2 days, control 24.11, LPS 421.13
Experimental: Mouse macrophages were used to examine the inhibition of compounds on TNFα secretion in LPS stimulation.
Mouse macrophages were cultured in RPMI 1640 medium for 1 day. Then, 10 μM mangiferin 8a and 10 μM norathyriol were added to macrophages, and after 1 day of culture, 10 μg/mL of LPS was added to each, followed by 2 days of culture.
Thus, the samples were divided into “control” with no treatment, “10 μg/mL LPS+10 μM mangiferin 8a” to which 10 μg/mL LPS and 10 μM mangiferin 8a were added, and “10 μg/mL LPS+10 μM norathyriol” to which 10 μg/mL LPS and 10 μM norathyriol were added and only 10 μg/mL LPS was added (“[…] LPS”).
After these samples were incubated for 2 days, the culture supernatant was collected and TNFα secretion was measured by enzyme-linked immunosorbent assay (ELISA). The mouse TNFα ELISA kit (R&D) was used for this measurement.

## O=c1c2cc(O)c(O)cc2oc2cc(O)cc(O)c12 [norathyriol, 1,3,6,7-tetrahydroxyxanthone]
[1]
  amount of IgE antibody: 1692 ng/mL
[2]
  IL-5 secretion: 14 pg/mL
[3]; control 0, BAFF only 45.6
  population IgM positive and IgD positive (mature B cells): 0.062%
[3]; control 0.529, BAFF only 42.3
  population IgM positive and IgD negative (immature B cells): 1.46%
[3]; control 99.5, BAFF only 11.7
  population IgM negative and IgD negative (pre-B cells): 98.5%
[4]
  TNFα secretion: 45.07 pg/mL
[5]
  IL-6 secretion: 61.39 pg/mL
[6]
  IL-17A expression (CD4 positive): markedly reduced
[7]
  number of viable cells (cell count): 1.16×10^4 cells/mL
[8]
  TNFα secretion: 68.13 pg/mL
